Reference: patent publication US8389557B2, “Triazole derivatives useful as Axl inhibitors” (Rigel Pharmaceuticals, Inc., priority 2005, dated 2013)

Biological target: T1, Axl (Homo sapiens, UniProt P30530)
T1 construct: endogenous in cells; host or cells: HeLa cells
T1 sequence (P30530 26-894): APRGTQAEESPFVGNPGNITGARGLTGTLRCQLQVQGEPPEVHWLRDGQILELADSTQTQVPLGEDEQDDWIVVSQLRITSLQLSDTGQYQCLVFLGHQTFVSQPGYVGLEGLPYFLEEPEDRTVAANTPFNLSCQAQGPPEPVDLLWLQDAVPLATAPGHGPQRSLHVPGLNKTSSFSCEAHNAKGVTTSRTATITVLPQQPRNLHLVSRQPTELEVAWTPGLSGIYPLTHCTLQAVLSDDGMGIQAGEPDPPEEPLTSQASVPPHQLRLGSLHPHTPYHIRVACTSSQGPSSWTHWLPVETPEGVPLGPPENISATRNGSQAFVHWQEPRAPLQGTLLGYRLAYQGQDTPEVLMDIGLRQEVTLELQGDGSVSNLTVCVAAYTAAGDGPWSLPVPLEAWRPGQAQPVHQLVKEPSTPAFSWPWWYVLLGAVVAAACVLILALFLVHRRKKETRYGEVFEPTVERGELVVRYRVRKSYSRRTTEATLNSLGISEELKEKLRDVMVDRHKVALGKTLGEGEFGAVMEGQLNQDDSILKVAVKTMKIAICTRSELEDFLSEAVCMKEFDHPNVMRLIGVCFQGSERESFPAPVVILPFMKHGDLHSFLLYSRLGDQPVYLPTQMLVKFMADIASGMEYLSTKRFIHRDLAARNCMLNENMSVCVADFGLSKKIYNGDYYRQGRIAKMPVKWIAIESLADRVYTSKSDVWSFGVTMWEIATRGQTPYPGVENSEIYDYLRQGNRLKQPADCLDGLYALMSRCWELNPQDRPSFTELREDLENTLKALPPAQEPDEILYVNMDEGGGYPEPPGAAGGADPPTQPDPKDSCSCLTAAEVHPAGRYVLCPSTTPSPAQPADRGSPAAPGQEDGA
Assay: Phospho-Akt in-cell Western assay (inhibition of Axl activity)
Format: cell-based
Experimental: The compounds of the invention were tested in the following assay for their ability to inhibit Axl activity.
Phospho-Akt in-Cell Western Assay
• Cell culture plate: 96 well assay plate (Corning 3610), white, clear bottom, tissue-culture treated. • Cells: Hela cells. • Starvation medium: For Axl stimulation: 0.5% FCS (fetal calf serum) in DMEM, plus Axl/Fc (extracellular domain of AXL fused to immunoglobulin Fc region) (R&D, 154-AL) 500 ng/mL. • For EGF (epidermal growth factor) stimulation: 0.5% FCS in DMEM (Dulbecco's modified Eagles medium). • Poly-L-Lysine 0.01% solution (the working solution): 10 μg/ml, dilute In PBS (phosphate buffered saline). • Axl antibody cross-linking: • 1st: Mouse anti-Axl (R&D, MAB154). • 2nd: Biotin-SP-conjugated AffiniPure goat anti-mouse IgG (H+L) (Jackson ImmunoResearch #115-065-003). • Fixing buffer: 4% formaldehyde in PBS. • Wash buffer: 0.1% TritonX-100 in PBS. • Quenching buffer: 3% H2O2, 0.1% Azide in wash buffer, Azide and hydrogen peroxide (H2O2) are added fresh. • Blocking buffer: 5% BSA in TBST (tris buffered saline plus 0.1% Tween 20). • Primary antibody: Rabbit anti-human Phospho-Akt antibody (Cell Signaling 9271): 1×250 diluted in blocking buffer. • Secondary antibody: HRP (horse radish peroxidase)-conjugated Goat anti-Rabbit secondary, stock solution: Jackson ImmunoResearch (Goat anti-Rabbit HRP, #111-035-144) 1:1 diluted in glycerol, store at −20° C. The working solution: 1×2000 dilution of stock in blocking buffer. • Chemiluminescent working solution (Pierce, 37030): SuperSignal ELISA (enzyme linked immunosorbant assay) Pico Chemiluminescent substrate. • Crystal Violet solution: Stock: 2.5% Crystal violet in methanol, filtered and kept at ambient temperature. The working solution: dilute the stock 1:20 with PBS immediately before use. • 10% SDS: working solution: 5% SDS (sodium dodecylsulfate), diluted in PBS Methods: Day 1:
A 96 well TC (tissue culture treated) plate was coated with 10 μg/mL poly-L-Lysine at 37° C. for 30 min, washed twice with PBS, and air-dried for 5 minutes before cells were added. Hela cells were seeded at 10,000 cells/well and the cells were starved in 100 μL starvation medium containing Axl/Fc for 24 hrs.
The cells were pre-treated with test compounds by adding 100 μL of 2× test compound to the starvation medium on the cells. The cells were incubated at 37° C. for 1 hr before stimulation.
The cells were stimulated by Axl-antibody cross-linking as follows: A 5×1st/2nd Axl antibody mixture was made (37.5 μg/mL 1st/100 μg/mL 2nd) in starvation medium and nutated at 4° C. with thorough mixing for 1-2 hours for clustering. The resulting mix was warmed to 37° C. 50 μL of 5× Axl 1st/2nd of antibody cluster was added to the cells and the cells were incubated at 37° C. for 5 min.
After 5 minutes stimulation, the plate was flicked to remove medium and the plate was tapped onto paper towels. Formaldehyde (4.0% in PBS, 100 μL) was added to fix the cells and the cells were incubated at ambient temperature for 20 min without shaking.
The cells were washed with a plate washer buffer to remove the formaldehyde solution. The plate was flicked to removed excess wash buffer and tapped onto paper towels. Quenching buffer (100 μL) was added to each well and the cells were incubated at ambient temperature for 20 minutes without shaking.
The cells were washed with a plate washer buffer to remove the quenching buffer. Blocking buffer (100 μL) was added and the cells were incubated at ambient temperature for at least an hour with gentle shaking.
The cells were washed with a plate washer buffer and diluted primary antibody (50 μL) was added to each well (blocking buffer was added to the negative control wells instead). The plates were incubated overnight at 4° C. with gentle shaking.
The wash buffer was removed, diluted secondary antibody (100 μL) was added, and the cells were incubated at ambient temperature for 1 hour with gentle shaking. […]

[1] = inhibition of Axl activity, Table 1
[2] = Table 5, Hela cells, Axl antibody cross-linking stimulation, phospho-Akt chemiluminescence
[3] = Table 7, Hela cells, Axl antibody cross-linking stimulation, phospho-Akt chemiluminescence
[4] = Table 3, Hela cells, Axl antibody cross-linking stimulation, phospho-Akt chemiluminescence
[5] = inhibition of Axl activity, phospho-Akt in-cell Western assay, Table 1

Structure (SMILES): Nc1nc(Nc2ccc3c(c2)OCCO3)nn1C(=O)c1ccc(OCc2ccccc2)cc1 [compound 142, 5-amino-1-(4-(benzyloxy)phenyl)carbonyl-3-(1,4-benzodioxan-6-yl)amino-1H-1,2,4-triazole]
- IC50 [1]: 1 to 10 µM

Structure (SMILES): CC(C)(C)Oc1cccc(C(=O)n2nc(NC3C4C=CC(C4)C3C(N)=O)nc2N)c1 (stereo not shown) [compound 348, 5-amino-1-(3-(tert-butoxy)phenyl)carbonyl-3-[(5-(aminocarbonyl)bicyclo[2.2.1]hept-2-en-6-yl)amino]-1H-1,2,4-triazole]
- IC50 [2]: > 20 µM

Structure (SMILES): Cc1cccc(C(=O)n2nc(Nc3nc4ccccc4s3)nc2N)c1 [compound 256, 5-amino-3-(benzothiazol-2-yl)amino-1-(3-methylphenyl)carbonyl-1H-1,2,4-triazole]
- IC50 [2]: > 20 µM

Structure (SMILES): CC(C)Oc1ccc(Nc2nc(N)n(C(=O)c3ccc(OC(C)C)cc3)n2)cc1 [compound 111, 5-amino-3-[4-(iso-propoxy)phenylamino]-1-(4-(iso-propoxy)phenyl)carbonyl-1H-1,2,4-triazole]
- IC50 [1]: 1 to 10 µM

Structure (SMILES): Cc1ccc(NC(=O)n2nc(Nc3ccc(OCCN4CCCCC4)cc3)nc2N)cc1 [compound 39, 5-amino-N-(4-methylphenyl)-3-[4-[2-(piperidin-1-yl)ethoxy]phenylamino]-1H-1,2,4-triazole-1-carboxamide]
- IC50 [3]: 1 to 10 µM

Structure (SMILES): CC(=O)Oc1ccc(C(=O)n2nc(Nc3ccc4c(c3)OCCO4)nc2N)cc1 [compound 109, 1-(4-(Acetoxy)phenyl)carbonyl-5-amino-3-(1,4-benzodioxan-6-yl)amino-1H-1,2,4-triazole]
- IC50 [1]: 1 to 10 µM

Structure (SMILES): Cc1cccc(NC(=O)n2nc(Nc3ccc(OCCN4CCCCC4)cc3)nc2N)c1 [compound 29, 5-amino-N-(3-methylphenyl)-3-[4-[2-(piperidin-1-yl)ethoxy]phenylamino]-1H-1,2,4-triazole-1-carboxamide]
- IC50 [3]: < 1 µM

Structure (SMILES): Nc1nc(Nc2ccc(OCCN3CCCC3)cc2)nn1C(=O)c1ccccn1 [compound 203, 5-amino-1-(pyridin-2-yl)carbonyl-3-[4-[2-(pyrrolidin-1-yl)ethoxy]phenylamino]-1H-1,2,4-triazole]
- IC50 [4]: > 20 µM

Structure (SMILES): Cc1cccc(C(=O)n2nc(Nc3ccc4cn[nH]c4c3)nc2N)c1 [compound 160, 5-amino-3-(indazol-6-yl)amino-1-(3-(methyl)phenyl)carbonyl-1H-1,2,4-triazole]
- IC50 [2]: 1 to 10 µM

Structure (SMILES): CC(C)Oc1ccc(C(=O)n2nc(Nc3cccc(OC4CCCC4)c3)nc2N)cc1 [compound 116, 5-amino-3-[3-(cyclopentoxy)phenylamino]-1-(4-(iso-propoxy)phenyl)carbonyl-1H-1,2,4-triazole]
- IC50 [1]: > 20 µM

Structure (SMILES): CC(C)Oc1ccc(C(=O)n2nc(NC3C4C=CC(C4)C3C(N)=O)nc2N)cc1 (stereo not shown) [compound 354, 5-amino-1-(4-(iso-propoxy)phenyl)carbonyl-3-[(5-(aminocarbonyl)bicyclo[2.2.1]hept-2-en-6-yl)-amino]-1H-1,2,4-triazole]
- IC50 [2]: > 20 µM

Structure (SMILES): CN(C)c1ccc(C(=O)n2nc(Nc3ccc(N4CCCC4)cc3)nc2N)cc1 [compound 299, 5-amino-1-(4-(dimethylamino)phenyl)carbonyl-3-[4-(pyrrolidin-1-yl)phenylamino]-1H-1,2,4-triazole]
- IC50 [5]: 1 to 10 µM

Structure (SMILES): Nc1nc(Nc2ccc(OCCN3CCCC3)cc2)nn1C(=O)c1ccc(N2CCS(=O)(=O)CC2)cc1 [compound 400, 5-amino-1-(4-(1,1-dioxo-thiomorpholin-4-yl)phenyl)carbonyl-3-[4-[2-(pyrrolidin-1-yl)ethoxy]phenylamino]-1H-1,2,4-triazole]
- IC50 [5]: < 1 µM

Structure (SMILES): Nc1nc(Nc2ccc(OCCN3CCCC3)cc2)nn1C(=O)c1cccs1 [compound 285, 5-amino-1-(thien-2-yl)carbonyl-3-[4-[2-(pyrrolidin-1-yl)ethoxy]phenylamino]-1H-1,2,4-triazole]
- IC50 [4]: < 1 µM

Structure (SMILES): CS(=O)(=O)N1CCC(Nc2nc(N)nn2C(=O)c2c(F)cccc2F)CC1 [compound 391, 3-amino-1-(2,6-difluorophenyl)carbonyl-5-(1-methylsulfonylpiperidin-4-yl)amino-1H-1,2,4-triazole]
- IC50 (Table 6, Hela cells, Axl antibody cross-linking stimulation, phospho-Akt chemiluminescence): > 20 µM

Structure (SMILES): COc1ccc(Nc2nc(N)n(C(=O)c3ccc(C)cc3)n2)cc1 [compound 132, 5-amino-3-[4-(methoxy)phenylamino]-1-(4-(methyl)phenyl)carbonyl-1H-1,2,4-triazole]
- IC50 [1]: 1 to 10 µM

Structure (SMILES): CS(=O)(=O)N1CCC(Nc2nc(N)n(C(=O)c3c(F)cccc3F)n2)CC1 [compound 392, 5-amino-1-(2,6-difluorophenyl)carbonyl-3-(1-methylsulfonylpiperidin-4-yl)amino-1H-1,2,4-triazole]
- IC50 [2]: > 20 µM

Structure (SMILES): COCCOCOc1cccc(Nc2nc(N)n(C(=O)c3cccc(C)c3)n2)c1 [compound 212, 5-amino-1-(3-methylphenyl)carbonyl-3-[3-[(2-methoxyethoxy)methoxy]phenylamino]-1H-1,2,4-triazole]
- IC50 [1]: 1 to 10 µM

Structure (SMILES): CC(C)(C)c1ccc(C(=O)n2nc(N)nc2Nc2ccc(OCCN3CCCC3)cc2)cc1 [compound 303, 3-amino-1-(4-(tert-butyl)phenyl)carbonyl-5-[4-[2-(pyrrolidin-1-yl)ethoxy]phenylamino]-1H-1,2,4-triazole]
- IC50 (Table 2, Hela cells, Axl antibody cross-linking stimulation, phospho-Akt chemiluminescence): 1 to 10 µM

Structure (SMILES): Nc1nc(Nc2ccc3c(c2)OCCO3)nn1C(=O)c1ccccc1Cl [compound 94, 5-amino-1-(2-(chloro)phenyl)carbonyl-3-(1,4-benzodioxan-6-yl)amino-1H-1,2,4-triazole]
- IC50 [1]: > 20 µM

Structure (SMILES): Nc1nc(Nc2ccc(N3CCOCC3)cc2)nn1C(=O)c1ccc(S(N)(=O)=O)cc1 [compound 70, 5-amino-1-(4-(aminosulfonyl)phenyl)carbonyl-3-(4-(morpholin-4-yl)phenylamino)-1H-1,2,4-triazole]
- IC50 [1]: > 20 µM

Structure (SMILES): Cc1cccc(C(=O)n2nc(Nc3ccc4oc(C(=O)NCCOC5CCCCO5)cc4c3)nc2N)c1 (stereo not shown) [compound 207, 5-amino-1-(3-methylphenyl)carbonyl-3-[2-[N-[2-(tetrahydropyran-2-yloxy)ethyl]amino]carbonylbenzofuran-5-yl]amino-1H-1,2,4-triazole]
- IC50 [2]: 1 to 10 µM
